Data reported in patent US6355799B1, “Substituted benzene compounds, process for their preparation, and herbicidal and defoliant compositions containing them” (ISK Americas Incorporated, priority 1997, dated 2002).

Columns and labels:
Assay type in all cases: in vivo
[1] = tested on: redroot pigweed (Amaranthus retroflexus, AMARE); assay: Pre-emerge test, greenhouse herbicide activity screening; details: pre-emerge, 14 days after application, rating scale 0-100
Procedure, shortened: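 Compounds in acetone were track-sprayed at 187 l/ha, 15–1000 g ai/ha, onto sandy loam pots. Pre-emerge seeds were sown one day before spraying, with surface watering afterwards. Post-emerge plants were at the 2–3 leaf stage and sprayed with 0.25% v/v non-ionic surfactant. Injury was rated 0–100 at 14 days.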

[2] = tested on: upland rice (Oryza sp., var. Tebonnet, RICE); assay: Pre-emerge test, crop safety; details: pre-emerge, 14 days after application, rating scale 0-100
Procedure, shortened: (§1)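 Sandy loam pots; pre-emerge: sown 1 d pre-spray, surface-watered after, then bottom-watered. Post-emerge: sown 8–21 d before, 2–3 leaf stage, + 0.25% v/v NIS, bottom-watered. Acetone, 187 l/ha track spray, 15–1000 g ai/ha. 0–100 injury score, day 14.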

[3] = tested on: field corn (Zea mays L., var. Dekalb 535, CORN); assay: Pre-emerge test, crop safety; details: pre-emerge, 14 days after application, rating scale 0-100
Procedure, shortened: as §1

[4] = tested on: large crabgrass (Digitaria sanguinalis, DIGSA); assay: Pre-emerge test, greenhouse herbicide activity screening; details: pre-emerge, 14 days after application, rating scale 0-100
Description: (§2) A standard greenhouse herbicide activity screening system was used to evaluate the herbicidal efficacy and crop safety of these test compounds. Seven broadleaf weed species including redroot pigweed (Amaranthus retroflexus, AMARE, velvetleaf (Abutilon theophrasti, ABUTH), sicklepod (Cassia obtusifolia, CASOB), ivyleaf morningglory (Ipomoea hederacea, IPOHE), lambsquarters (Chenopodium album, CHEAL), common ragweed (Ambrosia artemisizfolia L., AMBEL), and cocklebur (Xanthium strumarium, XANST) were used as test species. Four grass weed species including green foxtail (Setaria viridis, SETVI), barnyardgrass (Echinochloa crus-galli, ECHCG), johnsongrass (Sorghum halepense, SORHA), and large crabgrass (Digitaria sanguinalis, DIGSA) were also used. In addition, three crop species, field corn (Zea mays L., var. Dekalb 535, CORN), soybean (Glycine max L., var. Pella 86, SOY), and is upland rice (Oryza sp., var. Tebonnet, RICE) were included.
(§3) All plants were grown in 10 cm square plastic pots which were filled with a sandy loam soil mix. For pre-emerge tests, seeds were planted one day prior to application of the test compounds. For post-emerge tests, seeds were planted 8-21 days prior to the test to allow emergence and good foliage development prior to application of the test substances. At the time of the post-emerge application, plants of all species were usually at the 2-3 leaf stage of development.
(§4) All test compounds Were dissolved in acetone and applied to the test units in a volume of 187 l /ha. Test materials were applied at rates ranging from 15 g ai/ha to 1000 g ai/ha using a track sprayer equipped with a TJ8001E even flow flat fan spray nozzle. Plants were arranged on a shelf so that the top of the canopy (post-emerge) or top of the soil surface (pre-emerge) was 40-45 cm below the nozzle. Pressurized air was used to force the test solution through the nozzle as it was mechanically advanced (via electrically driven chain drive) over the top of all test plants/pots. This application simulates a typical commercial field herbicide application.
(§5) In the post-emerge test, a commercial non-ionic surfactant was also included (0.25% v/v) to enhance wetting of the leaf surfaces of target plants. Immediately after application, test units of the pre-emerge applications were watered at the soil surface to incorporate the test materials. Subsequently, these test units were bottom-watered. Post-emerge test units were always bottom-watered.
(§6) At 14 days after application of the test materials, phytotoxicity ratings were recorded. A rating scale of 0-100 was used as previously described in Research Methods in Weed Science, 2nd edition, B. Truelove, Ed., Southern Weed Science Society, Auburn University, Auburn, Ala. 1977. Briefly, “0” corresponds to no damage and “100” corresponds to complete death of all plants in the test unit. This scale was used both to determine efficacy against weed species and damage to crop species. Herbicide activity data for various compounds of this invention, which are shown by compound No. in Tables 1-8, are shown in Tables 11 and 12.

[5] = tested on: velvetleaf (Abutilon theophrasti, ABUTH); assay: as above; details: pre-emerge, 14 days after application, rating scale 0-100
Description: as §2, §3, §4, §5, §6

[6] = tested on: green foxtail (Setaria viridis, SETVI); assay: as above; details: pre-emerge, 14 days after application, rating scale 0-100
Description: as §2, §3, §4, §5, §6

[7] = tested on: barnyardgrass (Echinochloa crus-galli, ECHCG); assay: as above; details: pre-emerge, 14 days after application, rating scale 0-100
Description: as §2, §3, §4, §5, §6

[8] = tested on: ivyleaf morningglory (Ipomoea hederacea, IPOHE); assay: as above; details: pre-emerge, 14 days after application, rating scale 0-100
Description: as §2, §3, §4, §5, §6

[9] = tested on: sicklepod (Cassia obtusifolia, CASOB); assay: as above; details: pre-emerge, 14 days after application, rating scale 0-100
Description: as §2, §3, §4, §5, §6

[10] = tested on: lambsquarters (Chenopodium album, CHEAL); assay: as above; details: pre-emerge, 14 days after application, rating scale 0-100
Description: as §2, §3, §4, §5, §6

[11] = tested on: upland rice (Oryza sp., var. Tebonnet, RICE); assay: Post-emerge test, crop safety; details: post-emerge, 14 days after application, rating scale 0-100
Procedure, shortened: (§7)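 Applied at 15–1000 g ai/ha from acetone in 187 l/ha spray volume. Post-emergence applications included 0.25% v/v non-ionic surfactant and reached plants sown 8–21 days before. Pre-emergence applications were incorporated by surface watering. Efficacy or crop damage was rated on a 0–100 scale after 14 days.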

[12] = tested on: field corn (Zea mays L., var. Dekalb 535, CORN); assay: Post-emerge test, crop safety; details: post-emerge, 14 days after application, rating scale 0-100
Procedure, shortened: as §7

[13] = tested on: large crabgrass (Digitaria sanguinalis, DIGSA); assay: Post-emerge test, greenhouse herbicide activity screening; details: post-emerge, 14 days after application, rating scale 0-100
Description: as §2, §3, §4, §5, §6

[14] = tested on: velvetleaf (Abutilon theophrasti, ABUTH); assay: as above; details: post-emerge, 14 days after application, rating scale 0-100
Description: as §2, §3, §4, §5, §6

[15] = tested on: green foxtail (Setaria viridis, SETVI); assay: as above; details: post-emerge, 14 days after application, rating scale 0-100
Description: as §2, §3, §4, §5, §6

[16] = tested on: barnyardgrass (Echinochloa crus-galli, ECHCG); assay: as above; details: post-emerge, 14 days after application, rating scale 0-100
Description: as §2, §3, §4, §5, §6

[17] = tested on: ivyleaf morningglory (Ipomoea hederacea, IPOHE); assay: as above; details: post-emerge, 14 days after application, rating scale 0-100
Description: as §2, §3, §4, §5, §6

[18] = tested on: sicklepod (Cassia obtusifolia, CASOB); assay: as above; details: post-emerge, 14 days after application, rating scale 0-100
Description: as §2, §3, §4, §5, §6

[19] = tested on: redroot pigweed (Amaranthus retroflexus, AMARE); assay: as above; details: post-emerge, 14 days after application
Description: as §2, §3, §4, §5, §6

[20] = tested on: lambsquarters (Chenopodium album, CHEAL); assay: as above; details: post-emerge, 14 days after application, rating scale 0-100
Description: as §2, §3, §4, §5, §6

Compound: COc1c(Cl)cc(F)c(-n2c(=O)cc(C(F)(F)F)n(C)c2=O)c1NN=Cc1ccc(F)cc1F [15-20]
- phytotoxicity rating AMARE ([1]; 63 g ai/ha): 100
- phytotoxicity rating AMARE ([1]; 250 g ai/ha): 100
- phytotoxicity rating RICE ([2]; 63 g ai/ha): 70
- phytotoxicity rating RICE ([2]; 250 g ai/ha): 100
- phytotoxicity rating CORN ([3]; 63 g ai/ha): 65
- phytotoxicity rating CORN ([3]; 250 g ai/ha): 95
- phytotoxicity rating DIGSA ([4]; 63 g ai/ha): 100
- phytotoxicity rating DIGSA ([4]; 250 g ai/ha): 100
- phytotoxicity rating ABUTH ([5]; 63 g ai/ha): 100
- phytotoxicity rating ABUTH ([5]; 250 g ai/ha): 100
- phytotoxicity rating SETVI ([6]; 63 g ai/ha): 100
- phytotoxicity rating SETVI ([6]; 250 g ai/ha): 100
- phytotoxicity rating ECHCG ([7]; 63 g ai/ha): 50
- phytotoxicity rating ECHCG ([7]; 250 g ai/ha): 100
- phytotoxicity rating IPOHE ([8]; 63 g ai/ha): 80
- phytotoxicity rating IPOHE ([8]; 250 g ai/ha): 80
- phytotoxicity rating CASOB ([9]; 63 g ai/ha): 60
- phytotoxicity rating CASOB ([9]; 250 g ai/ha): 100
- phytotoxicity rating CHEAL ([10]; 63 g ai/ha): 100
- phytotoxicity rating CHEAL ([10]; 250 g ai/ha): 100
- Post-emerge Herbicidal Activity RICE (crop damage rating) ([11]; 63 g ai/ha): 35
- Post-emerge Herbicidal Activity RICE (crop damage rating) ([11]; 250 g ai/ha): 80
- Post-emerge Herbicidal Activity CORN (crop damage rating) ([12]; 63 g ai/ha): 40
- Post-emerge Herbicidal Activity CORN (crop damage rating) ([12]; 250 g ai/ha): 85
- Post-emerge Herbicidal Activity DIGSA (phytotoxicity rating) ([13]; 63 g ai/ha): 30
- Post-emerge Herbicidal Activity DIGSA (phytotoxicity rating) ([13]; 250 g ai/ha): 90
- Post-emerge Herbicidal Activity ABUTH (phytotoxicity rating) ([14]; 63 g ai/ha): 100
- Post-emerge Herbicidal Activity ABUTH (phytotoxicity rating) ([14]; 250 g ai/ha): 100
- Post-emerge Herbicidal Activity SETVI (phytotoxicity rating) ([15]; 63 g ai/ha): 80
- Post-emerge Herbicidal Activity SETVI (phytotoxicity rating) ([15]; 250 g ai/ha): 100
- Post-emerge Herbicidal Activity ECHCG (phytotoxicity rating) ([16]; 63 g ai/ha): 50
- Post-emerge Herbicidal Activity ECHCG (phytotoxicity rating) ([16]; 250 g ai/ha): 100
- Post-emerge Herbicidal Activity IPOHE (phytotoxicity rating) ([17]; 63 g ai/ha): 100
- Post-emerge Herbicidal Activity IPOHE (phytotoxicity rating) ([17]; 250 g ai/ha): 100
- Post-emerge Herbicidal Activity CASOB (phytotoxicity rating) ([18]; 63 g ai/ha): 80
- Post-emerge Herbicidal Activity CASOB (phytotoxicity rating) ([18]; 250 g ai/ha): 100
- Post-emerge Herbicidal Activity AMARE (phytotoxicity rating) ([19]; 63 g ai/ha, rating scale 0-100 (0 no damage, 100 complete death)): 100
- Post-emerge Herbicidal Activity AMARE (phytotoxicity rating) ([19]; 250 g ai/ha, rating scale 0-100): 100
- Post-emerge Herbicidal Activity CHEAL (phytotoxicity rating) ([20]; 63 g ai/ha): 100
- Post-emerge Herbicidal Activity CHEAL (phytotoxicity rating) ([20]; 250 g ai/ha): 100
